Source: ChEMBL document CHEMBL1201862, “PubChem BioAssay data set” (2004)
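Compound exposure: 48 hours, 5 concentrations, 96-well plates. GI50 = concentration required for 50% inhibition of growth.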 Active and inactive are the calls of the source. Cut-off read from the data, not from the text of the source: active = GI50 up to about 1.1 µM and inactive = higher.

Experiments:
Test in all cases: NCI-60 cell line screen, 48 h
DMS-114 = test system: DMS-114
DMS-273 = test system: DMS-273
HOP-18 = test system: HOP-18
KM-20L2 = test system: KM-20L2
LXFL 529 = test system: LXFL 529
RXF 631 = test system: RXF 631
SNB-78 = test system: SNB-78
XF498 = test system: XF498

Measured: GI50

O=C(c1ccccc1)[C@H]1Nc2ccc(Cl)cc2[C@H]2OCCC[C@@H]12
inactive: DMS-114 14.2 µM | DMS-273 19.3 µM | HOP-18 18.5 µM | KM-20L2 16.7 µM | LXFL 529 12.1 µM | RXF 631 17.9 µM | SNB-78 24.1 µM | XF498 19.5 µM

C[P+](C)(C)c1ccccc1
inactive: DMS-114 > 100 µM | DMS-273 > 100 µM | HOP-18 > 100 µM | KM-20L2 > 100 µM | LXFL 529 > 100 µM | RXF 631 > 100 µM | XF498 > 100 µM

CCOC(=O)[C@H]1Nc2ccc(Cl)cc2[C@H]2OCC[C@@H]12
inactive: DMS-114 > 100 µM | DMS-273 > 100 µM | HOP-18 > 100 µM | KM-20L2 > 100 µM | LXFL 529 > 100 µM | RXF 631 > 100 µM | SNB-78 > 100 µM | XF498 > 100 µM

Cc1cc(N(CCC#N)CCC#N)ccc1/N=N/c1cccc(C(=O)O)c1
inactive: DMS-114 > 100 µM | DMS-273 > 100 µM | HOP-18 > 100 µM | LXFL 529 > 100 µM | RXF 631 > 100 µM | SNB-78 > 100 µM | XF498 52.4 µM

Cc1ccc(C(=O)CC2=Nc3nnc(CCCCCCCc4nnc5n4C(=O)C(CC(=O)c4ccc(C)cc4)=N5)n3C2=O)cc1
inactive: DMS-114 > 100 µM | HOP-18 > 100 µM | KM-20L2 > 100 µM | LXFL 529 > 100 µM | RXF 631 > 100 µM | XF498 > 100 µM
